Assays:
[1] = target: T1, Farnesyl protein transferase (FPT) (Homo sapiens, UniProt P49354+P49356); assay: Farnesyl protein transferase (FPT) inhibition, tritiated farnesyl pyrophosphate incorporation into Kras (CVIM); format: biochemical; conditions: FPT partially purified from human placenta; 300 nM tritiated farnesyl pyrophosphate, 120 nM ras-CVIM, 20 minutes at 37°
T1 construct: partially purified from human placenta by ammonium sulphate fractionation; from tissue; host or cells: human placenta
Protocol: Biological activity was tested as follows. Farnesyl protein transferase (FPT) was partially purified from human placenta by ammonium sulphate fractionation followed by a single Q-Sepharose™ (Pharmacia, Inc) anion exchange chromatography essentially as described by Ray and Lopez-Belmonte (Ray K P and Lopez-Belmonte J (1992) Biochemical Society Transations 20 494-497). The substrate for FPT was Kras (CVIM C-terminal sequence). The cDNA for oncogenic va112 variant of human c-Ki-ras-2 4B was obtained from the plasmid pSW11-1 (ATCC). This was then subcloned into the polylinker of a suitable expression vector e.g. pIC147, The Kras was obtained after expression in the E. coli strain, BL21. The expression and purification of c-KI-ras-2 4B and the val12 variant in E. coli has also been reported by Lowe et al (Lowe P N et al. J. Biol. Chem. (1991) 266 1672-1678).
Incubations with enzyme contained 300 nM tritiated farnesyl pyrophosphate (DuPont/New England Nuclear), 120 nM ras-CVIM, 50 mM Tris HCl pH 8.0, 5 mM MgCl2, 10 μM ZnCl2, 5 mM dithiotheitol and compounds were added at appropriate concentrations in DMSO (3% final concentration in test and vehicle control). […] Precipitated protein was then collected onto glass fibre filter mats (B) using a Tomtec™ cell harvester and tritiated label was measured in a Wallac™ 1204 Betaplate scintillation counter.

Row | IC50 [1] | melting point | Structure (SMILES)
1 | ~150 nM | – | CSCC[C@H](NC(=O)c1ccc(/C=C(\c2ccccc2)C(C)n2ccnc2)cc1)C(=O)O (stereo partly drawn) [Example 6, (2S)-2-{4-[(E)-3-(imidazol-1-yl)-3-methyl-2-phenyl-prop-1-enyl]-benzamido}-4-methylsulfanylbutyric acid]
2 | – | 98 to 100 °C | CSCC[C@H](NC(=O)c1cccc(/C=C(\Cn2ccnc2)c2ccc(F)cc2)c1)C(=O)O [Example 3, (2S)-2-{3-[(Z)-2-(4-fluorophenyl)-3-(imidazol-1-yl)-prop-1-enyl]-benzamido}-4-methylsulfanylbutyric acid]
3 | – | 106 °C | CSCC[C@H](NC(=O)c1ccc(/C=C(/Cn2ccnc2)c2ccc(F)cc2)cc1)C(=O)O [Example 12, (2S)-2-{4-[(E)-2-(4-Fluorophenyl)-3-(imidazol-1-yl)-prop-1-en-1-yl]benzamido}-4-methylsulfanylbutyric acid]

From US6414145B1, “Imidazolyl compounds as inhibitors of farnesyl-protein tranferase” (Zeneca Limited, priority 1997, dated 2002)
